{"source": "the NIST ThermoML archive (doi:10.1016/j.jct.2012.05.015)", "conditions": "Liquid, Calculated from knudsen effusion weight loss", "note": "Where “and” joins values, the source holds several entries; their conditions need not be identical. Equal entries are not always repeated. Numbers after ± are expanded uncertainties.", "data": [{"molecule": "Nc1ccnc(N)n1", "note": "[2,4-pyrimidinediamine]", "values": [{"measurement": "vapor or sublimation pressure", "setting": "335.12 K", "value": "7.78e-05 ± 3.9e-06 kPa and 7.75e-05 ± 3.9e-06 kPa and 7.72e-05 ± 3.9e-06 kPa"}, {"measurement": "vapor or sublimation pressure", "setting": "338.18 K", "value": "0.000109 ± 5e-06 kPa and 0.00011 ± 6e-06 kPa and 0.000105 ± 5e-06 kPa"}, {"measurement": "vapor or sublimation pressure", "setting": "341.17 K", "value": "0.00015 ± 8e-06 kPa and 0.000145 ± 7e-06 kPa and 0.000141 ± 7e-06 kPa"}, {"measurement": "vapor or sublimation pressure", "setting": "344.12 K", "value": "0.000208 ± 1e-05 kPa and 0.000202 ± 1e-05 kPa and 0.000212 ± 1.1e-05 kPa"}, {"measurement": "vapor or sublimation pressure", "setting": "347.17 K", "value": "0.000291 ± 1.5e-05 kPa and 0.000283 ± 1.4e-05 kPa and 0.000274 ± 1.4e-05 kPa"}, {"measurement": "vapor or sublimation pressure", "setting": "350.17 K", "value": "0.000391 ± 2e-05 kPa and 0.000378 ± 1.9e-05 kPa"}, {"measurement": "vapor or sublimation pressure", "setting": "353.12 K", "value": "0.000554 ± 2.8e-05 kPa and 0.000535 ± 2.7e-05 kPa and 0.000532 ± 2.7e-05 kPa"}, {"measurement": "vapor or sublimation pressure", "setting": "356.18 K", "value": "0.00074 ± 3.7e-05 kPa and 0.000736 ± 3.7e-05 kPa and 0.000697 ± 3.5e-05 kPa"}, {"measurement": "vapor or sublimation pressure", "setting": "359.16 K", "value": "0.000989 ± 4.9e-05 kPa and 0.000945 ± 4.7e-05 kPa and 0.000904 ± 4.5e-05 kPa"}]}, {"molecule": "Nc1cc(N)nc(N)n1", "note": "[2,4,6-pyrimidinetriamine]", "values": [{"measurement": "vapor or sublimation pressure", "setting": "391.14 K", "value": "7.42e-05 ± 3.7e-06 kPa and 7.31e-05 ± 3.7e-06 kPa and 7.14e-05 ± 3.6e-06 kPa"}, {"measurement": "vapor or sublimation pressure", "setting": "393.15 K", "value": "9.48e-05 ± 4.8e-06 kPa and 8.89e-05 ± 4.5e-06 kPa and 8.51e-05 ± 4.3e-06 kPa"}, {"measurement": "vapor or sublimation pressure", "setting": "395.15 K", "value": "0.00011 ± 6e-06 kPa and 0.000107 ± 5e-06 kPa and 0.0001 ± 5e-06 kPa"}, {"measurement": "vapor or sublimation pressure", "setting": "397.13 K", "value": "0.000131 ± 7e-06 kPa and 0.000124 ± 6e-06 kPa and 0.000141 ± 7e-06 kPa"}, {"measurement": "vapor or sublimation pressure", "setting": "399.13 K", "value": "0.000167 ± 8e-06 kPa and 0.000166 ± 8e-06 kPa and 0.000148 ± 7e-06 kPa"}, {"measurement": "vapor or sublimation pressure", "setting": "401.15 K", "value": "0.0002 ± 1e-05 kPa and 0.000188 ± 9e-06 kPa and 0.000186 ± 9e-06 kPa"}, {"measurement": "vapor or sublimation pressure", "setting": "403.15 K", "value": "0.000247 ± 1.2e-05 kPa and 0.000237 ± 1.2e-05 kPa and 0.000215 ± 1.1e-05 kPa"}, {"measurement": "vapor or sublimation pressure", "setting": "405.15 K", "value": "0.000292 ± 1.5e-05 kPa and 0.000287 ± 1.4e-05 kPa and 0.000258 ± 1.3e-05 kPa"}, {"measurement": "vapor or sublimation pressure", "setting": "407.15 K", "value": "0.000345 ± 1.7e-05 kPa and 0.000316 ± 1.6e-05 kPa and 0.000319 ± 1.6e-05 kPa"}, {"measurement": "vapor or sublimation pressure", "setting": "409.12 K", "value": "0.000393 ± 2e-05 kPa and 0.000407 ± 2e-05 kPa and 0.000375 ± 1.9e-05 kPa"}, {"measurement": "vapor or sublimation pressure", "setting": "411.12 K", "value": "0.000484 ± 2.4e-05 kPa and 0.000487 ± 2.4e-05 kPa and 0.000439 ± 2.2e-05 kPa"}, {"measurement": "vapor or sublimation pressure", "setting": "413.15 K", "value": "0.000593 ± 3e-05 kPa and 0.00054 ± 2.7e-05 kPa and 0.000536 ± 2.7e-05 kPa"}]}]}
